# Results from US20090162314A1, “Magnesium-Containing Polymers for the Treatment of Hyperphosphatemia” (priority 2005, published 2009).
# Tested on: urinary phosphate
# Assay: In vivo phosphate binding: urinary phosphate levels in rats fed test compound in diet
# Set-up: species or system Sprague Dawley (SD) rats
# Conditions: SD rats, urine days 5 and 6, cellulose control
# Method: House male Sprague Dawley (SD) rats were used for the experiments. The rats were placed singly in wire-bottom cages, fed with Purina 5002 diet, and allowed to acclimate for at least 5 days prior to experimental use.
# To establish baseline phosphorus excretion, the rats were placed in metabolic cages for 48 hours. Their urine was collected and its phosphorus content analyzed with a Hitachi analyzer to determine phosphorus excretion in mg/day. Any rats with outlying values were excluded; and the remainder of the rats was distributed into groups.
# Purina 5002 was used as the standard diet. The compound being tested was mixed with Purina 5002 to result in a final concentration by weight as noted in the table. Cellulose at 0.5% by weight was used as a negative control. For each rat, 200 g of diet was prepared.
# Each rat was weighed and placed on the standard diet. After 4 days the standard diet was replaced with the treatment diet (or control diet for the control group). On days 5 and 6, urine samples from the rats at 24 hours (+/−30 minutes) were collected and analyzed. The test rats were again weighed, and any weight loss or gain was calculated. Any remaining food was also weighed to calculate the amount of food consumed per day. A change in phosphorus excretion relative to baseline and cellulose negative control was calculated using Excel program.
Compound,% Urinary Phosphate Relative to that of Control Animals (2.38 % of diet) [%],% Urinary Phosphate Relative to that of Control Animals (0.20 % of diet) [%],% Urinary Phosphate Relative to that of Control Animals (0.25 % of diet) [%],% Urinary Phosphate Relative to that of Control Animals (0.30 % of diet) [%],% Urinary Phosphate Relative to that of Control Animals (0.40 % of diet) [%],% Urinary Phosphate Relative to that of Control Animals (1.00 % of diet) [%]
[Cl-].[Cl-].[Mg+2] [MgCl2],57.0,,,,,
[Mg+2].[O-2] [MgO],,61.6,69.3,54.8,26.1,3.6
